Patent EP0672419A1, “BLOOD PRESSURE REGULATOR” (Asahi Kasei Kogyo Kabushiki Kaisha, priority 1991, dated 1995)

System: Adult mongrel dog
Test: Induced hypotension in halothane-anesthetized dog, mean arterial pressure kept at 50 mmHg for 60 min (Example 5)
Format: in vivo
Description: Adult mongrel dog, mean body weight 12.7 ± 3.1 kg, was anesthesized with pentobarbital 25 mg/kg, intratarcheally cannulated and maintained anesthetic condition by 0.87% halothane-oxygen (1 MAC, minimum anesthetic concentration). Respiration was controlled, by using respirator (Harvard Corp., Model 613E ) at Paco₂ 35±5 mmHg.
Catheters were introduced to right femoral vein and artery for monitering arterial blood pressure, arterial blood gas analysis and infusion, and left cardiac catheter was introduced to left femoral […] to monitor left ventricular pressure. The changes in left ventricular pressure were differentiated continuously using a pressure processor (Nihon Koden Co., EQ-601G) to measure a maximum left ventricular systolic ratio (LV dp/dt max). The active ingredient of the present invention was administered to left femoral vein. Pulmonary arterial catheter (7F, Swan-Ganz® catheter) was introduced through right external jugular vein to monitor pulmonary artery pressure (PAP), paulmonary arterial wedge pressure (pulmonary capillary wedge pressure, PCWP) and cardiac output (CO). Pressure was monitored by using disporsable pressure monitoring kit (Gould Corp.), and electrocardiogram, arteriala pressure, left ventricle pressure (LVP) and maximum left ventricular systolic ratio (LV dp/dt max) were monitored by polygraph (Nihon Koden Co.) . Cardiac output (CO) was measured by thermal dilution method using cardiac output monitor (Nihon Koden Co Model MTC6210). Blood gas analysis was made by using automatic blood gas analyser (Radiometer Corp. ABL3). Mean artery pressure (MAP), cardiac index(CI) stroke volume index (SI), systemic vascular resistance (SVR), pulmonary vascular resistance (PVR), left ventricle stroke work index (LVSWI) and coronary perfusion pressure (CPP) were calculated by standard calculation equations, respectively.
To maintain low blood pressure, the active ingredient was intraveneously administered for 60 minutes with maintaining maximum dose at 40 µg/kg and adjusting to maintain mean arteraial pressure at 50 mmHg. Physiological saline was used for maintenance infusion and administered in combination with the active ingredient at 7 ml/kg/hr. At blood sampling two fold volume of hydroxyethylstarch (6-HES) was supplementary administered. Body temperature was maintained at 37 ± 1°C by covering with blanket.
A value at time are than 60 minutes passed after completing the start of the experiment and stabilizing a depth of anesthesia and blood flow, is set as control (S₁). Monitorings were performed at 5 min., 30 min. and 60 min. under reduced blood pressure in induced hypotension, and at 10 min., 30 min. and 60 min. after terminating the reduced blood pressure in induced hypotension (after stopping administration), for totally seven points of time.

[1] = after administration 5min., i.v., MAP kept at 50 mmHg
[2] = after administration 30min., i.v., MAP kept at 50 mmHg
[3] = after administration 60min., i.v., MAP kept at 50 mmHg
[4] = after terminating administration 10min.
[5] = after terminating administration 30min.
[6] = after terminating administration 60min.

desalanyl-deamino-c-CGRP
CI: Cardiac index [1]: 4.65 1/min/m²
CO: Cardiac output [1]: 3.67 min⁻¹
CPP: Coronary perfusion pressure [1]: 45 mmHg
CVP: Central venous pressure [1]: 4 mmHg
DAP: Diastolic artery pressure [1]: 50 mmHg
DPAP: Diastolic pulmonary artery pressure [1]: 7 mmHg
EtCO₂: Expiration terminal CO₂ pressure [1]: 37 mmHg
HR: Heart rate [1]: 143 beat/min
LV dp/dt max: maximum left ventricular systolic ratio [1]: 3000 mmHg/sec
LVEP: Left ventricle end pressure [1]: 0 mmHg
LVP: Left ventricle pressure [1]: 102 mmHg
LVSWI: Left ventricle stroke work index [1]: 26.5 g.m/beat/m²
MAP: Mean artery pressure [1]: 65 mmHg
MPAP: Mean pulmonary artery pressure [1]: 16 mmHg
PCWP: Pulmonary capillary wedge pressure [1]: 5 mmHg
PVR: Pulmonary vascular resistance [1]: 255 dynes · sec/cm⁵
RPP: Rate pressure products [1]: 13200 mmHg.beat/min
RVSWI: Right ventricle stroke work index [1]: 5.30 g.m/beat/m²
SAP: Systolic artery pressure [1]: 93 mmHg
SI: Stroke index [1]: 32.5 ml/HR/m²
SPAP: Systolic pulmonary artery pressure [1]: 29 mmHg
SV: Stroke volumes [1]: 24 mL/beat
SVR: Systemic vascular resistance [1]: 1410 dynes · sec/cm⁵
CI: Cardiac index [2]: 4.24 1/min/m²
CO: Cardiac output [2]: 3.40 min⁻¹
CPP: Coronary perfusion pressure [2]: 29 mmHg
CVP: Central venous pressure [2]: 4 mmHg
DAP: Diastolic artery pressure [2]: 34 mmHg
DPAP: Diastolic pulmonary artery pressure [2]: 5 mmHg
EtCO₂: Expiration terminal CO₂ pressure [2]: 35 mmHg
HR: Heart rate [2]: 132 beat/min
LV dp/dt max: maximum left ventricular systolic ratio [2]: 2600 mmHg/sec
LVEP: Left ventricle end pressure [2]: 0 mmHg
LVP: Left ventricle pressure [2]: 86 mmHg
LVSWI: Left ventricle stroke work index [2]: 19.7 g.m/beat/m²
MAP: Mean artery pressure [2]: 50 mmHg
MPAP: Mean pulmonary artery pressure [2]: 12 mmHg
PCWP: Pulmonary capillary wedge pressure [2]: 5 mmHg
PVR: Pulmonary vascular resistance [2]: 177 dynes · sec/cm⁵
RPP: Rate pressure products [2]: 7650 mmHg.beat/min
RVSWI: Right ventricle stroke work index [2]: 3.50 g.m/beat/m²
SAP: Systolic artery pressure [2]: 58 mmHg
SI: Stroke index [2]: 32.2 ml/HR/m²
SPAP: Systolic pulmonary artery pressure [2]: 24 mmHg
SV: Stroke volumes [2]: 23.8 mL/beat
SVR: Systemic vascular resistance [2]: 1160 dynes · sec/cm⁵
CI: Cardiac index [3]: 4.95 1/min/m²
CO: Cardiac output [3]: 3.75 min⁻¹
CPP: Coronary perfusion pressure [3]: 37 mmHg
CVP: Central venous pressure [3]: 4 mmHg
DAP: Diastolic artery pressure [3]: 43 mmHg
DPAP: Diastolic pulmonary artery pressure [3]: 7 mmHg
EtCO₂: Expiration terminal CO₂ pressure [3]: 34 mmHg
HR: Heart rate [3]: 138 beat/min
LV dp/dt max: maximum left ventricular systolic ratio [3]: 2600 mmHg/sec
LVEP: Left ventricle end pressure [3]: 0 mmHg
LVP: Left ventricle pressure [3]: 95 mmHg
LVSWI: Left ventricle stroke work index [3]: 23.4 g.m/beat/m²
MAP: Mean artery pressure [3]: 50 mmHg
MPAP: Mean pulmonary artery pressure [3]: 15 mmHg
PCWP: Pulmonary capillary wedge pressure [3]: 6 mmHg
PVR: Pulmonary vascular resistance [3]: 196 dynes · sec/cm⁵
RPP: Rate pressure products [3]: 8000 mmHg.beat/min
RVSWI: Right ventricle stroke work index [3]: 5.37 g.m/beat/m²
SAP: Systolic artery pressure [3]: 58 mmHg
SI: Stroke index [3]: 35.9 ml/HR/m²
SPAP: Systolic pulmonary artery pressure [3]: 27 mmHg
SV: Stroke volumes [3]: 26.5 mL/beat
SVR: Systemic vascular resistance [3]: 1090 dynes · sec/cm⁵
CI: Cardiac index [4]: 4.33 1/min/m²
CO: Cardiac output [4]: 3.33 min⁻¹
CPP: Coronary perfusion pressure [4]: 41 mmHg
CVP: Central venous pressure [4]: 4 mmHg
DAP: Diastolic artery pressure [4]: 49 mmHg
DPAP: Diastolic pulmonary artery pressure [4]: 7 mmHg
EtCO₂: Expiration terminal CO₂ pressure [4]: 32 mmHg
HR: Heart rate [4]: 136 beat/min
LV dp/dt max: maximum left ventricular systolic ratio [4]: 3000 mmHg/sec
LVEP: Left ventricle end pressure [4]: 0 mmHg
LVP: Left ventricle pressure [4]: 110 mmHg
LVSWI: Left ventricle stroke work index [4]: 21.7 g.m/beat/m²
MAP: Mean artery pressure [4]: 58 mmHg
MPAP: Mean pulmonary artery pressure [4]: 15 mmHg
PCWP: Pulmonary capillary wedge pressure [4]: 8 mmHg
PVR: Pulmonary vascular resistance [4]: 174 dynes · sec/cm⁵
RPP: Rate pressure products [4]: 9240 mmHg.beat/min
RVSWI: Right ventricle stroke work index [4]: 4.77 g.m/beat/m²
SAP: Systolic artery pressure [4]: 68 mmHg
SI: Stroke index [4]: 31.9 ml/HR/m²
SPAP: Systolic pulmonary artery pressure [4]: 26 mmHg
SV: Stroke volumes [4]: 23.6 mL/beat
SVR: Systemic vascular resistance [4]: 1340 dynes · sec/cm⁵
CI: Cardiac index [5]: 4.07 1/min/m²
CO: Cardiac output [5]: 3.14 min⁻¹
CPP: Coronary perfusion pressure [5]: 46 mmHg
CVP: Central venous pressure [5]: 4 mmHg
DAP: Diastolic artery pressure [5]: 53 mmHg
DPAP: Diastolic pulmonary artery pressure [5]: 8 mmHg
EtCO₂: Expiration terminal CO₂ pressure [5]: 30 mmHg
HR: Heart rate [5]: 138 beat/min
LV dp/dt max: maximum left ventricular systolic ratio [5]: 3000 mmHg/sec
LVEP: Left ventricle end pressure [5]: 0 mmHg
LVP: Left ventricle pressure [5]: 110 mmHg
LVSWI: Left ventricle stroke work index [5]: 23.7 g.m/beat/m²
MAP: Mean artery pressure [5]: 66 mmHg
MPAP: Mean pulmonary artery pressure [5]: 15 mmHg
PCWP: Pulmonary capillary wedge pressure [5]: 7 mmHg
PVR: Pulmonary vascular resistance [5]: 211 dynes · sec/cm⁵
RPP: Rate pressure products [5]: 10900 mmHg.beat/min
RVSWI: Right ventricle stroke work index [5]: 4.42 g.m/beat/m²
SAP: Systolic artery pressure [5]: 79 mmHg
SI: Stroke index [5]: 29.5 ml/HR/m²
SPAP: Systolic pulmonary artery pressure [5]: 25 mmHg
SV: Stroke volumes [5]: 21.8 mL/beat
SVR: Systemic vascular resistance [5]: 1640 dynes · sec/cm⁵
CI: Cardiac index [6]: 4.14 1/min/m²
CO: Cardiac output [6]: 3.07 min⁻¹
CPP: Coronary perfusion pressure [6]: 54 mmHg
CVP: Central venous pressure [6]: 6 mmHg
DAP: Diastolic artery pressure [6]: 61 mmHg
DPAP: Diastolic pulmonary artery pressure [6]: 8 mmHg
EtCO₂: Expiration terminal CO₂ pressure [6]: 30 mmHg
HR: Heart rate [6]: 134 beat/min
LV dp/dt max: maximum left ventricular systolic ratio [6]: 3000 mmHg/sec
LVEP: Left ventricle end pressure [6]: 0 mmHg
LVP: Left ventricle pressure [6]: 111 mmHg
LVSWI: Left ventricle stroke work index [6]: 31.1 g.m/beat/m²
MAP: Mean artery pressure [6]: 95 mmHg
MPAP: Mean pulmonary artery pressure [6]: 16 mmHg
PCWP: Pulmonary capillary wedge pressure [6]: 7 mmHg
PVR: Pulmonary vascular resistance [6]: 234 dynes · sec/cm⁵
RPP: Rate pressure products [6]: 13600 mmHg.beat/min
RVSWI: Right ventricle stroke work index [6]: 4.21 g.m/beat/m²
SAP: Systolic artery pressure [6]: 102 mmHg
SI: Stroke index [6]: 30.9 ml/HR/m²
SPAP: Systolic pulmonary artery pressure [6]: 26 mmHg
SV: Stroke volumes [6]: 22.9 mL/beat
SVR: Systemic vascular resistance [6]: 1950 dynes · sec/cm⁵
